Laboratory results: patent publication US10577308B2, “Sodium channel modulators” (The Florey Institute of Neuroscience and Mental Health, priority 2015, dated 2020)
Like-named read-outs stand apart in the source and are kept apart here.

Assays:
hNav1.6 = hNav1.6 (Homo sapiens (Human), UniProt Q9UQD0); experiment: Automated patch clamp (IonWorks Quattro) block of hNav1.6 channels in CHO cells; format: cell-based
Excerpt: (§1) FIG. 1 depicts the voltage sequence used to measure inhibitory activity of compounds as described in Example 3. An automated patch clamp screening assay was used to measure the inhibitory effect (potency) of compounds in three conformational states of the sodium channel: (1) the tonic state (TP1); (2) the frequency-dependent (10 Hz) state (TP11) and (3) the inactivated state (TP12).
(§2) Test Protocol for Determining the Potency of Compounds on Nav1.2 and Nav1.6 Subtypes of Voltage-Gated Sodium Ion Channels Expressed in Mammalian Cells
(§3) Cell culture procedures: Chinese hamster ovary (CHO) cells were stably transfected with the cDNA sequence of either the human SCN2A or SCN8A genes to create hNav1.2 or hNav1.6 cells respectively. The cell lines were cultured in Ham's F-12 medium supplemented with 10% fetal bovine serum and antibiotics in a tissue incubator at 37° C. under a humidified air/CO2 mixture (95/5 v/v). On the day of the experiment, cells were washed twice with Hank's balanced salt solution, treated with trypsin, and resuspended in fresh culture media at a density of 4−6×10^6 cells in 20 ml. Immediately before placing in the IonWorks Quattro instrument, cells were washed in Hank's balanced salt solution to remove culture medium and re-suspended in 3 ml of Hank's balanced salt solution.
(§4) Automated patch clamp recordings of cells using the IonWorks Quattro Instrument: The assay used a 384 microwell plate, which enabled 20 compounds to be studied at four different concentrations in quadruplicate as well as allowing a vehicle control group and a positive control group using mexiletine at 8 different concentrations. Cells were added to the wells of the Population Patch Clamp planar electrode using a 48-channel pipettor in a volume of 6 μL, per well. After 5 minutes incubation at ambient temperature with compounds or vehicle, membrane currents were recorded using the patch clamp amplifier. The pulse pattern was repeated twice, before and after compound addition and peak current amplitudes were measured at three test pulses, TP1, TP11 and TP12 to measure Tonic Block, 10 Hz Frequency-dependent Block and Inactivation State Block, respectively.
(§5) Data analysis: Data acquisition and analyses were carried out using the IonWorks Quattro system operation software which uses an algorithm to correct data for leak currents. Concentration-response curves were fitted by non-linear least squares regression allowing calculation of an IC50 value (μM), being the concentration of the compound producing half-maximal inhibition.

hNav1.2 = hNav1.2 (Homo sapiens (Human), UniProt Q99250); experiment: Automated patch clamp (IonWorks Quattro) block of hNav1.2 channels in CHO cells; format: cell-based
Excerpt: as §1, §2, §3, §4, §5

[1] = 10 Hz frequency-dependent block (TP11), read-out: IC50 Nav1.6 10 Hz block
[2] = Inactivated state block (TP12), read-out: IC50 Nav1.6 Inactivated state block
[3] = Tonic block (TP1), read-out: IC50 Nav1.6 Tonic block
[4] = 10 Hz frequency-dependent block (TP11), read-out: IC50 Nav1.2 10 Hz block
[5] = Inactivated state block (TP12), read-out: IC50 Nav1.2 Inactivated state block
[6] = Tonic block (TP1), read-out: IC50 Nav1.2 Tonic block

Sequence of hNav1.2 (Q99250 whole entry): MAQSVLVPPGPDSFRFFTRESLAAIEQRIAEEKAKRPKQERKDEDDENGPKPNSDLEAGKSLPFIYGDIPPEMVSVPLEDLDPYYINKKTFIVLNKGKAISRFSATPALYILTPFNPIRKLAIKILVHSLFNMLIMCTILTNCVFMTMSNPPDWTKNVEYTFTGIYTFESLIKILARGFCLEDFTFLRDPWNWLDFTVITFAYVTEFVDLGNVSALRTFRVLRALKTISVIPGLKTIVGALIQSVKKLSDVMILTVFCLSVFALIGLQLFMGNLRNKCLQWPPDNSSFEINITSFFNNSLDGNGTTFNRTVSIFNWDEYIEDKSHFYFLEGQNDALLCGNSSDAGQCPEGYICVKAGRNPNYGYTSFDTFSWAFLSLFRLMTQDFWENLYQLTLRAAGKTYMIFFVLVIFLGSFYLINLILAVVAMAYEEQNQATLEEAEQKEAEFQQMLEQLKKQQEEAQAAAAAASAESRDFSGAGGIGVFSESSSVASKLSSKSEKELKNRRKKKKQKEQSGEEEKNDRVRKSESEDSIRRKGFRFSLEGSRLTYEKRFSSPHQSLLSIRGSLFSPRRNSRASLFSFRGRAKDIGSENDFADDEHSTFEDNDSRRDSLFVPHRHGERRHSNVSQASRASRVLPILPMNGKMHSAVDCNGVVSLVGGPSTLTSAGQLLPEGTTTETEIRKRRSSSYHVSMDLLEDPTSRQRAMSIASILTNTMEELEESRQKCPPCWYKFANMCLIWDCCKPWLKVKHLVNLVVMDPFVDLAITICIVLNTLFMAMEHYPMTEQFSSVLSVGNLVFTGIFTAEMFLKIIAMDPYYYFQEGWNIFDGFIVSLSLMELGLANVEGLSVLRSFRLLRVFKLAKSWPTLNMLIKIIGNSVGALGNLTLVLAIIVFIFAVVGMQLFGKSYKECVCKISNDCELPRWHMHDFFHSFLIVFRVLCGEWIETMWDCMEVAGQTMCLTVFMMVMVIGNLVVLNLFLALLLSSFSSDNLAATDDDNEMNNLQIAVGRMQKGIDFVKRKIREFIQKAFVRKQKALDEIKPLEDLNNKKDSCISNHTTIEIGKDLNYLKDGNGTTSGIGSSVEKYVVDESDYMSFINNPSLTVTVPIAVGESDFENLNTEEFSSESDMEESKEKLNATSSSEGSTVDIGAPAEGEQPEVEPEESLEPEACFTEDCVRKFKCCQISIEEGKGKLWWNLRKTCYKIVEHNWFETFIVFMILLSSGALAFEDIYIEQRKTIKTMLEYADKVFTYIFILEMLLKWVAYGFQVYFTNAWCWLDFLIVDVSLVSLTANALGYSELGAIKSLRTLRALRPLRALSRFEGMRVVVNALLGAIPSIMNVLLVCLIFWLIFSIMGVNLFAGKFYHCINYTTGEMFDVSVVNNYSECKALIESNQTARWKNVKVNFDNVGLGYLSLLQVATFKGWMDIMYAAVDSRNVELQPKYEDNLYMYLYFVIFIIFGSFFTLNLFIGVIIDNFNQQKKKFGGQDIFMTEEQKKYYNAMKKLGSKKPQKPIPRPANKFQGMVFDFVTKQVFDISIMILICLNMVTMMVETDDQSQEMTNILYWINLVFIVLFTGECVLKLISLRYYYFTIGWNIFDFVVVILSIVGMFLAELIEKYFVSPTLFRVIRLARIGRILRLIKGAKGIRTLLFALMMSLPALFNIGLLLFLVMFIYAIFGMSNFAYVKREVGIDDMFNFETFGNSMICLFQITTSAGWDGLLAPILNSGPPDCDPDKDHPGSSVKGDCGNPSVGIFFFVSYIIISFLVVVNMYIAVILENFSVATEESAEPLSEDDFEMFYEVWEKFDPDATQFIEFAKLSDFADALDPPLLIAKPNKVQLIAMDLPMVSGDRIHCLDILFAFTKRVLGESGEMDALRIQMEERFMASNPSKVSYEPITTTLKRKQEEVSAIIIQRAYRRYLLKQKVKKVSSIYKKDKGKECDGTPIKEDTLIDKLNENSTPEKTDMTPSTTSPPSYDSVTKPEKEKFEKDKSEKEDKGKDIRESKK
Sequence of hNav1.6 (Q9UQD0 whole entry): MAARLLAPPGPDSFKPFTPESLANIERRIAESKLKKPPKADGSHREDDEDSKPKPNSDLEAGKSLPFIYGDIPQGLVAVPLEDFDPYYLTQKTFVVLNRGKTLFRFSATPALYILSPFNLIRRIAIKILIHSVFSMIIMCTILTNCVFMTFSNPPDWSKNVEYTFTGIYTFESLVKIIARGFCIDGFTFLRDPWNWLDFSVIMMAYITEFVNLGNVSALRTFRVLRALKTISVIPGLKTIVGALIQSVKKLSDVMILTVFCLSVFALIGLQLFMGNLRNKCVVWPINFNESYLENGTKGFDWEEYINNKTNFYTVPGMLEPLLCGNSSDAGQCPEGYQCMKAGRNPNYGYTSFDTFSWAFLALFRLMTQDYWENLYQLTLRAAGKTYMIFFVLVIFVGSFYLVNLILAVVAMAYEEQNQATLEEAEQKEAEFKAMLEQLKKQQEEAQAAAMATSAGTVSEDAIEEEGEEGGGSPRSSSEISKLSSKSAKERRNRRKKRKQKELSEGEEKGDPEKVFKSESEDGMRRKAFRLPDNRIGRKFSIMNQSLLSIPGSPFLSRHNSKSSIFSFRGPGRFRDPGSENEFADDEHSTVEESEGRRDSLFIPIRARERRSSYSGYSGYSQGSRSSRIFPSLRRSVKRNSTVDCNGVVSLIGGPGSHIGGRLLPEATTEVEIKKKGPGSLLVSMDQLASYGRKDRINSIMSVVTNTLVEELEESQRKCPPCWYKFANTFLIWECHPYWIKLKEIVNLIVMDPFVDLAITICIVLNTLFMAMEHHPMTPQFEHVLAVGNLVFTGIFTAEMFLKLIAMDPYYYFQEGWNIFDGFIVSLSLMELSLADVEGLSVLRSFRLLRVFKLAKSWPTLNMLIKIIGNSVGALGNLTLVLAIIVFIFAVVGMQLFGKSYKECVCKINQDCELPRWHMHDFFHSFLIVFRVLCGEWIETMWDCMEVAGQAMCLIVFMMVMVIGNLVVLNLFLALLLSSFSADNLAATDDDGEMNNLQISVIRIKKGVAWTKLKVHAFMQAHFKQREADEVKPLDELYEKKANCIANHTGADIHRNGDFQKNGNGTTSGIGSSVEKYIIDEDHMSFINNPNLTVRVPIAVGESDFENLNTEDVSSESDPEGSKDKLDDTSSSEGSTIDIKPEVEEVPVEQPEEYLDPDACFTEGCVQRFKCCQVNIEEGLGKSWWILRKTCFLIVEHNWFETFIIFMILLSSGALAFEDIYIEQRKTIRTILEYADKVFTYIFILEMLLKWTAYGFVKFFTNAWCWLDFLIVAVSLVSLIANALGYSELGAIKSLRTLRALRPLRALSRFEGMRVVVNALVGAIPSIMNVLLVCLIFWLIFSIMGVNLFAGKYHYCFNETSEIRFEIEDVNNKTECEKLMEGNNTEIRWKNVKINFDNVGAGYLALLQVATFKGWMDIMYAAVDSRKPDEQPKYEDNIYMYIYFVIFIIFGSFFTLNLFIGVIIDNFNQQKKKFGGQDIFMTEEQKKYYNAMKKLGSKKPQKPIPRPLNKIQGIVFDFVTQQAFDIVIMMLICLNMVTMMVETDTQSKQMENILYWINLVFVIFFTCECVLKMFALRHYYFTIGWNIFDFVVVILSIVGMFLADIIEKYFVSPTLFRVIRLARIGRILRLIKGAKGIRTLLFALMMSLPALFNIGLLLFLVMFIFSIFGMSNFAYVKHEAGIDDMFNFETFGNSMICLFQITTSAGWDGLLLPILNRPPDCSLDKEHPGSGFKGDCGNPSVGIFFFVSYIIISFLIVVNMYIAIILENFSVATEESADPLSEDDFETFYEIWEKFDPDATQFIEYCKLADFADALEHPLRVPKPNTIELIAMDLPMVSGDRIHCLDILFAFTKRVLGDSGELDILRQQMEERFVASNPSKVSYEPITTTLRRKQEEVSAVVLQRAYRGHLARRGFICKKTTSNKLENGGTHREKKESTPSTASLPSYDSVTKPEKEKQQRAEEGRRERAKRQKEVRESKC

| Compound | IC50 (hNav1.6; [1]) [µM] | IC50 (hNav1.6; [2]) [µM] | IC50 (hNav1.6; [3]) [µM] | IC50 (hNav1.2; [4]) [µM] | IC50 (hNav1.2; [5]) [µM] | IC50 (hNav1.2; [6]) [µM] |
| --- | --- | --- | --- | --- | --- | --- |
| Cc1cccc(C)c1OCCCNCc1cccc(-c2ccccc2F)c1 [Compound 556, 3-(2,6-Dimethylphenoxy)-N-((2′-fluorobiphenyl-3-yl)methyl)propan-1-amine] | > 30 | 8 | > 30 | 4.5 | 2.1 | > 30 |
| Cc1cccc(C)c1OCCCNCc1cc(C(C)(C)C)cc(C(C)(C)C)c1 [Compound 559, N-(3,5-Di-tert-butylbenzyl)-3-(2,6-dimethylphenoxy)propan-1-amine] | > 10 | > 10 | > 10 | > 10 | > 10 | > 10 |
| Cc1cccc(C)c1OCCCNC(c1ccccn1)c1ccccn1 [Compound 562, 3-(2,6-Dimethylphenoxy)-N-(dipyridin-2-ylmethyl)propan-1-amine] | 1.3 | 0.1 | > 30 | 1.2 | 0.1 | > 30 |
| Cc1n[nH]c(C)c1OCCCNC(c1ccccn1)c1ccccn1 [Compound 642, 3-(3,5-Dimethyl-1H-pyrazol-4-yloxy)-N-(dipyridin-2-ylmethyl)propan-1-amine] | > 10 | > 10 | > 10 | > 10 | > 10 | > 10 |
| Cc1nn(C)c(C)c1OCCCNC(c1ccccn1)c1ccccn1 [Compound 644, N-(Dipyridin-2-ylmethyl)-3-(1,3,5-trimethyl-1H-pyrazol-4-yloxy)propan-1-amine] | > 10 | > 10 | > 10 | > 10 | > 10 | > 10 |

Continued, values first:

| IC50 (hNav1.6; [1]) [µM] | IC50 (hNav1.6; [2]) [µM] | IC50 (hNav1.6; [3]) [µM] | IC50 (hNav1.2; [4]) [µM] | IC50 (hNav1.2; [5]) [µM] | IC50 (hNav1.2; [6]) [µM] | Compound |
| --- | --- | --- | --- | --- | --- | --- |
| > 30 | > 30 | > 30 | 9.3 | 3.2 | > 30 | Cc1cccc(C)c1OCCCNCc1cccc(-c2ccc(F)cc2)c1 [Compound 557, 3-(2,6-Dimethylphenoxy)-N-((4′-fluorobiphenyl-3-yl)methyl)propan-1-amine] |
| 0.4 | 0.3 | 0.4 | 0.6 | 0.2 | 1.2 | Cc1cccc(C)c1OCCCNCc1cccc(-c2cncnc2)c1 [Compound 558, 3-(2,6-Dimethylphenoxy)-N-(3-(pyrimidin-5-yl)benzyl)propan-1-amine] |
| > 10 | > 10 | > 10 | > 10 | > 10 | > 10 | Cc1n[nH]c(C)c1OCCCNCc1cccc(-c2cncnc2)c1 [Compound 643, 3-(3,5-Dimethyl-1H-pyrazol-4-yloxy)-N-(3-(pyrimidin-5-yl)benzyl)propan-1-amine] |
| > 10 | > 10 | > 10 | > 10 | > 10 | > 10 | Cc1nn(C)c(C)c1OCCCNCc1cccc(-c2cncnc2)c1 [Compound 645, N-(3-(Pyrimidin-5-yl)benzyl)-3-(1,3,5-trimethyl-1H-pyrazol-4-yloxy)propan-1-amine] |
